Experiment [1] concerns the target PD-L1 His protein / PD-1 Fc protein (Homo sapiens (Human), UniProt Q9NZQ7). Briefly: HTRF Assay (PD-1/PD-L1 interaction). The class given is binding. As to conditions: PD-L1 His 6 nM, PD-1 Fc 6 nM. (In TR-FRET formats the signal depends on donor and acceptor labels being close together.)
In a further experiment the test system is HBV-specific T cells. Put plainly: HBV-specific T cell reinvigoration in vitro assay using PBMCs from chronic hepatitis B patients. The experiment is classed as cell-based, human. To be noted: relative to HBV-specific peptide treatment alone, 24 hours; for Fold Change in IFN-γ Expression of HBV-specific T Cells, Mean ± SD: Mean ± SD of nine chronic hepatitis B donors. The method, then:
In one aspect, this assay measures the ability of a PD-L1 inhibitor to increase HBV specific T cell activity in an infected subject, as measured by the increase in interferon-gamma expression by those T cells.
The ability of PD-L1 inhibitor compounds to reinvigorate HBV-specific T cell activity was assessed as described. PBMCs from nine chronic hepatitis B patients were obtained by Ficoll separation of fresh whole blood and frozen in liquid nitrogen as described previously (Park et al., Nature Communications, 2021; 12:1222). Frozen PBMCs were thawed and plated into 12-well plates at 2×10^6 cells/ml. PBMCs were rested overnight at 37° C. before they were stimulated with HBV-specific peptide pools and allowed to proliferate for 5 days. Expanded PBMCs were then restimulated with HBV-specific peptide pools alone or stimulated with HBV-specific peptide pools and incubated with compounds 89, 90, and 139, a negative control, or anti-PD-L1 antibody as reference. Supernatant was obtained after 24 hours and assayed for IFN-γ using the Luminex platform. Fold change increase in IFN-γ expression mediated by compound treatment relative to HBV-specific peptide treatment alone was determined (Table 3).

Another experiment has as its target human PD-L1 (Homo sapiens (Human), UniProt Q9NZQ7). Put plainly: T cell activation luciferase reporter cell culture system (T Cell Activation Assay). As to conditions: luciferase reporter assay; PD-L1 aAPC/CHO-K1 cells with PD-1 effector Jurkat T cells. The class given is cell-based. On the technique in general: Reporter assays use an easily measured gene product as a stand-in for the process of interest.

Experiment [2] has as its system MC38 tumors expressing human PD-L1. Briefly: In vivo anti-tumor efficacy in humanized PD-L1 and PD-1 expressing MC38 tumor mouse model. To be noted: oral gavage once daily. The method, then:
In one aspect, this assay measures the ability of a PD-L1 inhibitor to reduce the size of MC38 (a murine colon adenocarcinoma cell line) tumors in mice, as an indication of the PD-L1 inhibitor's ability to help treat, ameliorate, and/or prevent cancer in the subject.
In vivo anti-tumor efficacy of compounds was evaluated in mice expressing humanized PD-1 and PD-L1, in which the extracellular domains of murine PD-1 and PD-L1 were genetically replaced with the human extracellular domain counterparts (Huang et al., Scientific Reports, 2017; 7:42687). Humanized PD-1/PD-L1 (hPD-1/hPD-L1) mice were subcutaneously implanted with the colorectal cancer cell line MC38 expressing human PD-L1 and compound treatment initiated when tumor volumes reached approximately 100 mm^3. Compounds were administered via oral gavage once daily at: 30 mg/kg between study days 1 and 7; or 10 mg/kg for 28 days. The anti-PD-L1 monoclonal antibody atezolizumab was included as a positive reference control and administered via intraperitoneal injection at 0.3 mg/kg thrice weekly between study days 1 and 15. Tumor lengths and widths were measured by digital caliper and tumor volumes were calculated by the formula: […].

SMILES strings stand for the structures.

The text below walks through data of patent publication US20240246964A1 (Arbutus Biopharma Corporation, priority 2021, published 2024).

By IC50 is commonly meant the concentration that gives 50% inhibition. Read a high IC50 as a need for much substance. In general, EC50 refers to the concentration that produces a half-maximal response.

Chain of human PD-L1 (Q9NZQ7 19-290): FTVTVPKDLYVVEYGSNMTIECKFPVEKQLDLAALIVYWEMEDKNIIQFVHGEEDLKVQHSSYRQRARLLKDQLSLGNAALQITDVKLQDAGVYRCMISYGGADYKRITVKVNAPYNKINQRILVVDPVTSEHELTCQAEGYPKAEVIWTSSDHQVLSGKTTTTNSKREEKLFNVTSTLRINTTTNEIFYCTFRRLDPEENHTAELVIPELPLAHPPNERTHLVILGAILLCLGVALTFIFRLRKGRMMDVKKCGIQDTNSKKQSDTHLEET
Chain of PD-L1 His protein / PD-1 Fc protein (Q9NZQ7 19-238): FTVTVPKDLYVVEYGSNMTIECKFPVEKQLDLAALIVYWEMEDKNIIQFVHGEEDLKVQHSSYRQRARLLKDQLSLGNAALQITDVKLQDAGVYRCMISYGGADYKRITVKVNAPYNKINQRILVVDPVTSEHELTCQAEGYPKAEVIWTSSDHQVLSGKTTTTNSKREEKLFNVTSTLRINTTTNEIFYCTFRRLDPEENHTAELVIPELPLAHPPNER

In experiment [1], `COc1cc(-c2nccc(-c3cccc(-c4ccc(CN5CC6(CNC(=O)C6)C5)c(OC)n4)c3Cl)c2Cl)ccc1CN1CC2(CNC(=O)C2)C1` [Compound 89, 2-(4-(3-chloro-4-(2-chloro-3-(6-methoxy-5-((7-oxo-2,6-diazaspiro[3.4]octan-2-yl)methyl)pyridin-2-yl)phenyl)pyridin-2-yl)-2-methoxybenzyl)-2,6-diazaspiro[3.4]octan-7-one] yielded an IC50 of 0.5 nM. Also, the “Fold Change in IFN-γ Expression of HBV-specific T Cells” value in the experiment with HBV-specific T cells (Chronic Hepatitis B Donor 1) turned out to be 2.0 Fold Change; with HBV-specific T cells (Chronic Hepatitis B Donor 2) it was 2.0 Fold Change; with HBV-specific T cells (Chronic Hepatitis B Donor 3) it was 1.5 Fold Change; in the experiment on HBV-specific T cells (Chronic Hepatitis B Donor 4), 3.7 Fold Change; with HBV-specific T cells (Chronic Hepatitis B Donor 5), 1.5 Fold Change; in the experiment on HBV-specific T cells (Chronic Hepatitis B Donor 6) it was 2.7 Fold Change. The “Fold Change in IFN-γ Expression of HBV-specific T Cells” value was determined as 1.3 Fold Change in the experiment on HBV-specific T cells (Chronic Hepatitis B Donor 7), 2.2 Fold Change in the experiment on HBV-specific T cells (Chronic Hepatitis B Donor 8) and 1.5 Fold Change with HBV-specific T cells (Chronic Hepatitis B Donor 9). The “Fold Change in IFN-γ Expression of HBV-specific T Cells, Mean ± SD” value with HBV-specific T cells is recorded as 2.0 ± 0.8 Fold Change. For the same compound, at human PD-L1, the EC50 was found to be 16.5 nM. In addition, the “Tumor Volume (group mean)” value in experiment [2] (10 mg/kg × 28 days, study day 2) amounted to 122 mm^3; in experiment [2] (10 mg/kg × 28 days, study day 5) it was 170 mm^3; in experiment [2] (10 mg/kg × 28 days, study day 9), 227 mm^3; in experiment [2] (10 mg/kg × 28 days, study day 12), 223 mm^3; in experiment [2] (10 mg/kg × 28 days, study day 16) it was 222 mm^3; in experiment [2] (10 mg/kg × 28 days, study day 19) it was 252 mm^3. Also, the “Tumor Volume (group mean)” value in experiment [2] (10 mg/kg × 28 days, study day 23) is recorded as 279 mm^3; in experiment [2] (10 mg/kg × 28 days, study day 26), 328 mm^3; in experiment [2] (10 mg/kg × 28 days, study day 28), 346 mm^3; in experiment [2] (10 mg/kg × 28 days, study day −1), 105 mm^3; in experiment [2] (30 mg/kg × 7 days, study day 2), 116 mm^3; in experiment [2] (30 mg/kg × 7 days, study day 5), 164 mm^3. In addition, the “Tumor Volume (group mean)” value in experiment [2] (30 mg/kg × 7 days, study day 9) came out at 176 mm^3; in experiment [2] (30 mg/kg × 7 days, study day 12), 212 mm^3; in experiment [2] (30 mg/kg × 7 days, study day 16) it was 243 mm^3; in experiment [2] (30 mg/kg × 7 days, study day 19), 310 mm^3; in experiment [2] (30 mg/kg × 7 days, study day 23) it was 418 mm^3; in experiment [2] (30 mg/kg × 7 days, study day 26), 564 mm^3. For the same compound, the “Tumor Volume (group mean)” value amounted to 607 mm^3 in experiment [2] (30 mg/kg × 7 days, study day 28) and 105 mm^3 in experiment [2] (30 mg/kg × 7 days, study day −1).

Compound `COc1cc(-c2nccc(-c3cccc(-c4ccc(CN5CC6(C5)CN(C(C)=O)C6)c(OC)n4)c3Cl)c2Cl)ccc1CN1CC2(C1)CN(C(C)=O)C2` [Compound 90, 1-(6-((6-(3-(2-(4-((6-acetyl-2,6-diazaspiro[3.3]heptan-2-yl)methyl)-3-methoxyphenyl)-3-chloropyridin-4-yl)-2-chlorophenyl)-2-methoxypyridin-3-yl)methyl)-2,6-diazaspiro[3.3]heptan-2-yl)ethan-1-one] had an IC50 in experiment [1] of 0.7 nM. The “Fold Change in IFN-γ Expression of HBV-specific T Cells” value in the experiment with HBV-specific T cells (Chronic Hepatitis B Donor 1) came to 1.7 Fold Change; in the experiment on HBV-specific T cells (Chronic Hepatitis B Donor 2) it was 2.2 Fold Change; with HBV-specific T cells (Chronic Hepatitis B Donor 3), 1.9 Fold Change; in the experiment with HBV-specific T cells (Chronic Hepatitis B Donor 4), 3.0 Fold Change; in the experiment with HBV-specific T cells (Chronic Hepatitis B Donor 5) it was 1.2 Fold Change; in the experiment on HBV-specific T cells (Chronic Hepatitis B Donor 6) it was 2.5 Fold Change. Also, the “Fold Change in IFN-γ Expression of HBV-specific T Cells” value in the experiment with HBV-specific T cells (Chronic Hepatitis B Donor 7) is recorded as 1.5 Fold Change; in the experiment on HBV-specific T cells (Chronic Hepatitis B Donor 8), 2.1 Fold Change; in the experiment on HBV-specific T cells (Chronic Hepatitis B Donor 9) it was 1.2 Fold Change. In the experiment on HBV-specific T cells, the “Fold Change in IFN-γ Expression of HBV-specific T Cells, Mean ± SD” value came to 1.9 ± 0.6 Fold Change. Also, a half-maximal response on human PD-L1 (EC50) required 58.3 nM.
